Laboratory results: patent US8557233B2, “Probiotic bifidobacterium strains” (Alimentary Heath Limited, priority 2007, dated 2013)

Tested on: B. longum AH1206
Assay: Minimum inhibitory concentration (MIC) of antibiotics
Format: cell-based, Bifidobacterium longum
Details: against B. longum AH1206
Method: Antibiotic sensitivity profiles of the B. longum strain was determined using the ‘disc susceptibility’ assay. Cultures were grown up in the appropriate broth medium for 24-48 h spread-plated (100 μl) onto agar media and discs containing known concentrations of the antibiotics were placed onto the agar. Strains were examined for antibiotic sensitivity after 1-2 days incubation at 37° C. under anaerobic conditions. Strains were considered sensitive if zones of inhibition of 1 mm or greater were seen. The minimum inhibitory concentration (MIC) for each antibiotic was independently assessed.

| minimum inhibitory concentration (MIC) | SMILES |
| --- | --- |
| 0.32 | CCC[C@@H]1C[C@@H](C(=O)N[C@@H]([C@H]2O[C@H](SC)[C@H](O)[C@@H](O)[C@H]2O)[C@H](C)Cl)N(C)C1 [clindamycin] |
| 0.38 | Cc1ncc([N+](=O)[O-])n1CCO [metronidazole] |

| SMILES | minimum inhibitory concentration (MIC) |
| --- | --- |
| CN[C@H](CC(C)C)C(=O)N[C@H]1C(=O)N[C@@H](CC(N)=O)C(=O)N[C@H]2C(=O)N[C@H]3C(=O)N[C@H](C(=O)N[C@H](C(=O)O)c4cc(O)cc(O)c4-c4cc3ccc4O)[C@H](O)c3ccc(c(Cl)c3)Oc3cc2cc(c3O[C@@H]2O[C@H](CO)[C@@H](O)[C@H](O)[C@H]2O[C@H]2C[C@](C)(N)[C@H](O)[C@H](C)O2)Oc2ccc(cc2Cl)[C@H]1O [vancomycin] | 0.75 |
